Columns and labels:
[1] = target: T1, two-pore channel 2 (TPC2) (Homo sapiens, UniProt Q8NHX9, L11A/L12A); test: fluo-4 Ca2+ FLIPR assay in HEK293 cells stably expressing hTPC2, stimulated with TPC2-A1-P or TPC2-A1-N; type: cell-based
T1 construct: gene TPCN2; human TPC2, C-terminally RFP-tagged, rerouted to the plasma membrane (hTPC2L11A/L12A)

P-glycoprotein (P-gp) = target: T2, P-glycoprotein (P-gp) (Homo sapiens, UniProt P08183); test: calcein-AM retention by flow cytometry in VCR-R CEM cells at […]; type: cell-based
T2 construct: gene ABCB1; P-glycoprotein overexpressing VCR-R CEM cells
T2 sequence (P08183 whole entry): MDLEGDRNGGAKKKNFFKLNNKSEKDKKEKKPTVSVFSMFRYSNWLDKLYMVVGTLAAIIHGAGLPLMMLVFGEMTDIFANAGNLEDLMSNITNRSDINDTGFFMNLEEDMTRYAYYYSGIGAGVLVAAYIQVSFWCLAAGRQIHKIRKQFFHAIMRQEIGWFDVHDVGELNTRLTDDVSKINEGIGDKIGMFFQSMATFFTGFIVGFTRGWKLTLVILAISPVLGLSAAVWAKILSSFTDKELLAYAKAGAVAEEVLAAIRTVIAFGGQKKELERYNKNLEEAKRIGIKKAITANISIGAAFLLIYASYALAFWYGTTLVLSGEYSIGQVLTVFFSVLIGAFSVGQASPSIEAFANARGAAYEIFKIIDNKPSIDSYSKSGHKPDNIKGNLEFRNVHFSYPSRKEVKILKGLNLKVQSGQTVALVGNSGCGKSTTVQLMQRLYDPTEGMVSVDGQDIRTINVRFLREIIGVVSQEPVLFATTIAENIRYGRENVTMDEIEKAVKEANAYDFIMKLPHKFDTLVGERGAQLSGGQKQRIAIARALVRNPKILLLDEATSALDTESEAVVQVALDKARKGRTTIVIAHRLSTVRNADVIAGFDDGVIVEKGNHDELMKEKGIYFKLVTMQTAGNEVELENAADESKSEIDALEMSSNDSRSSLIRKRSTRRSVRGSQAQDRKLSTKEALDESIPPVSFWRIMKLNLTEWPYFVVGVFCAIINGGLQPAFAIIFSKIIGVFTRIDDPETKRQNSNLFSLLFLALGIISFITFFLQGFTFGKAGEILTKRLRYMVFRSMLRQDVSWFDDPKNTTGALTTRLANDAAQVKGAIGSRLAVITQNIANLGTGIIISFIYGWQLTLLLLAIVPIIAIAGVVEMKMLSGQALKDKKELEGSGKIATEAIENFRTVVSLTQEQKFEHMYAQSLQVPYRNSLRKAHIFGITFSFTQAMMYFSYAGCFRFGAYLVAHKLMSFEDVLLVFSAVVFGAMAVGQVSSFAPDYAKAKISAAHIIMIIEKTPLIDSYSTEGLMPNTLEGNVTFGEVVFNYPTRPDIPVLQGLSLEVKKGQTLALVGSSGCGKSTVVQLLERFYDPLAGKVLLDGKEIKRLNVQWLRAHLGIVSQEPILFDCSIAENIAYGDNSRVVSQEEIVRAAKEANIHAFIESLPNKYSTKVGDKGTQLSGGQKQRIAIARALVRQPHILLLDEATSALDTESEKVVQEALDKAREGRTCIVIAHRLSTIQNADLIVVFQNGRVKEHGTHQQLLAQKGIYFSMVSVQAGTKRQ

T1 sequence (Q8NHX9 whole entry L11A/L12A): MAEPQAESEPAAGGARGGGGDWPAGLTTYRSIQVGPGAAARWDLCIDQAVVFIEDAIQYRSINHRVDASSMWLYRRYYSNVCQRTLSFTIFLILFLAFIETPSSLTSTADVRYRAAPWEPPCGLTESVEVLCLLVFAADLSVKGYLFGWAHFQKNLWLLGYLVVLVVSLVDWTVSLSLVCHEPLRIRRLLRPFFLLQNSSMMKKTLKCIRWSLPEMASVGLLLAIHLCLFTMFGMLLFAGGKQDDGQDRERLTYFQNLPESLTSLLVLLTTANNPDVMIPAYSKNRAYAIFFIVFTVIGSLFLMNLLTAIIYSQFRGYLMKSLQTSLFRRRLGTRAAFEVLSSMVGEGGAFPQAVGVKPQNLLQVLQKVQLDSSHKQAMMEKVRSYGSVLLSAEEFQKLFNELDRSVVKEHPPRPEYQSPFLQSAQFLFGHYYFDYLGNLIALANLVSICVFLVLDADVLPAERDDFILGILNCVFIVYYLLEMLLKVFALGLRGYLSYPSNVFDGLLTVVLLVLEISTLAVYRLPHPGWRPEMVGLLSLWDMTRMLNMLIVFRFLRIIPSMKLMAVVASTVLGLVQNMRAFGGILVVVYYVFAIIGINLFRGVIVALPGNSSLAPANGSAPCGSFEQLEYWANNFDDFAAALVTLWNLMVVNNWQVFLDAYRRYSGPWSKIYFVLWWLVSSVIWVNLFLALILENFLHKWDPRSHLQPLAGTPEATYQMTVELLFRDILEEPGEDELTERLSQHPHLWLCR

IC50 [1]	SMILES	calcein-AM retention by flow cytometry in VCR-R CEM cells at 10 μM (P-glycoprotein (P-gp))
3.6/57 µM	COc1ccc2cc1Oc1ccc(cc1)C[C@H]1c3c(cc4c(c3Oc3cc5c(cc3OC)CCN(C)[C@@H]5C2)OCO4)CCN1C [cepharanthine]	
31/21 µM	COc1ccc2cc1Oc1ccc(cc1)C[C@H]1c3cc(c(OC)cc3CCN1C)Oc1c(OC)c(OC)cc3c1[C@H](C2)N(C)CC3 [tetrandrine]	indicating no P-glycoprotein inhibition. Tetrandrine served as positive control (Figure 5C).

— article PMC8576818, “The ethoxycarbonyl group as both activating and protective group in N-acyl-Pictet–Spengler reactions using methoxystyrenes. A short approach to racemic 1-benzyltetrahydroisoquinoline alkaloids” (Beilstein Journal of Organic Chemistry, 2021)
